Results: US9605005B2, “Alkynyl alcohols and methods of use” (Genentech, Inc., priority 2013, dated 2017)
Read-outs that look alike come from different tables or passages of the source.

Assays:
[1] = biological target: nuclear factor-kappa B (NF-kB)-inducing kinase (NIK) (Homo sapiens (Human), UniProt Q99558); experiment: NIK enzyme inhibition assay (Transcreener ADP, NIK ADP-FP); format: biochemical; conditions: purified NIK 0.5 nM, 10 μM ATP, fluorescence polarization; read-out: NIK ADP-FP (Ki μM)
[2] = system: REL-A (p65) nuclear translocation, HeLa cells; experiment: REL-A (p65) nuclear translocation assay in HeLa cells (classical NF-kB signaling, TNF-α stimulated); format: cell-based; conditions: Homo sapiens, 0.5 h
How it was run: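 HeLa cells were exposed to test compounds at various concentrations (0.2% DMSO final) in medium with 10% fetal bovine serum for 4.5 hours, then stimulated for 30 minutes with 10 ng/mL TNF-α. After fixation in 4% paraformaldehyde, 0.1% Triton X-100 permeabilization and staining with 400 ng/mL anti-REL-A (p65) antibody, Alexa488 secondary and DRAQ5, Opera imaging gave nuclear-to-cytoplasmic signal ratios to calculate IC50.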

[3] = system: p52 (NF-kB2) nuclear translocation, HeLa cells; experiment: p52 (NF-kB2) nuclear translocation assay in HeLa cells (non-classical NF-kB signaling, anti-lymphotoxin beta receptor antibody stimulated); format: cell-based; conditions: Homo sapiens, 100 ng/mL anti-lymphotoxin beta receptor antibody for 5 hours, read-out: p52 HeLa Transloc Assay (IC50)
How it was run: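 HeLa cells in 10% FBS medium were treated with compound (0.2% DMSO final) and stimulated with 100 ng/mL anti-lymphotoxin beta receptor antibody for 5 h. Fixed cells were immunostained for p52 and imaged with DRAQ5 nuclear stain. Translocation is the nuclear to cytoplasmic intensity ratio, and IC50 values are in micromolar.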

[4] = HeLa cells, 10 ng/mL TNF-α for 30 minutes, read-out: REL-A HeLa Transloc Assay (IC50)

Chain of nuclear factor-kappa B (NF-kB)-inducing kinase (NIK) (Q99558 whole entry): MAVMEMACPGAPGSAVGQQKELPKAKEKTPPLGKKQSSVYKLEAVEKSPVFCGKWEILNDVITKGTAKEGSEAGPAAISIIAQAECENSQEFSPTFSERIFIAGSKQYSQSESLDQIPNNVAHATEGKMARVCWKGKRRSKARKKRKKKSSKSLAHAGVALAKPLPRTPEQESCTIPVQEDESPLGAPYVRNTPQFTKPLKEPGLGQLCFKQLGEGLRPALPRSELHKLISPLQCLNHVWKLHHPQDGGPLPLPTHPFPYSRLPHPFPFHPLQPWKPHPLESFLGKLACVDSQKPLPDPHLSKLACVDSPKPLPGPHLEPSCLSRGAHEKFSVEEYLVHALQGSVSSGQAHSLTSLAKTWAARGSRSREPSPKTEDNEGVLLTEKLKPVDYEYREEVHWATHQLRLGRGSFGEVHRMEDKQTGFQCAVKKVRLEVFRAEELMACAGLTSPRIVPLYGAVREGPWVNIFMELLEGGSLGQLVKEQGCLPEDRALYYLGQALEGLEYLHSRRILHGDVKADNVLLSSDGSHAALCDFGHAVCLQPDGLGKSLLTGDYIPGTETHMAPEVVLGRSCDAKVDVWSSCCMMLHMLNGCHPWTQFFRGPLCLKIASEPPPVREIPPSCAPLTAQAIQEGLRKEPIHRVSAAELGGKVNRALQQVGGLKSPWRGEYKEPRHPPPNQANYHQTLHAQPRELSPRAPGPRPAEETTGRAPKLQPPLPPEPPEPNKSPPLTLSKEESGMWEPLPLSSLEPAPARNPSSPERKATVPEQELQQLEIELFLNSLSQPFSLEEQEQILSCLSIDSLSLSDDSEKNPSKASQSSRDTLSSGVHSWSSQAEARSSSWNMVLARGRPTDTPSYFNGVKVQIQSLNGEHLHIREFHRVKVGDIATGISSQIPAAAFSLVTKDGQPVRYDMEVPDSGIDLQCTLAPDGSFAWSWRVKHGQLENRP

## CN1CC[C@@](O)(C#Cc2cccc(-n3nc(C(N)=O)c4cc(OCCN5CCC5)ccc43)c2)C1=O [Compound 161, 5-[2-(azetidin-1-yl)ethoxy]-1-[3-[2-[(3R)-3-hydroxy-1-methyl-2-oxo-pyrrolidin-3-yl]ethynyl]phenyl]indazole-3-carboxamide]
[1]
  Ki: 2.52 nM
[2]; [4]
  IC50: 2 µM
[3]
  IC50: 770 nM

## COc1ccn2c(C(N)=O)nc(-c3cccc(C#C[C@]4(O)CCN(C)C4=O)c3)c2c1 [Compound 97, 1-[3-[2-[(3R)-3-hydroxy-1-methyl-2-oxo-pyrrolidin-3-yl]ethynyl]phenyl]-7-methoxy-imidazo[1,5-a]pyridine-3-carboxamide]
[1]
  Ki: 0.05 nM
[2]; [4]
  IC50: 1 µM
[3]
  IC50: 6.6 nM

## Cc1nnc([C@](C)(O)C#Cc2cccc(-n3nc(C(N)=O)c4ccccc43)c2)o1 [Compound 26, 1-[3-[(3R)-3-hydroxy-3-(5-methyl-1,3,4-oxadiazol-2-yl)but-1-ynyl]phenyl]indazole-3-carboxamide]
[1]
  Ki: 2.52 nM
[2]; [4]
  IC50: 20 µM
[3]
  IC50: 1130 nM

## CN1CC[C@@](O)(C#Cc2cccc(-c3nc(C(N)=O)n4ccncc34)c2)C1=O [Compound 92, 1-[3-[2-[(3R)-3-hydroxy-1-methyl-2-oxo-pyrrolidin-3-yl]ethynyl]phenyl]imidazo[1,5-a]pyrazine-3-carboxamide]
[1]
  Ki: 0.37 nM
[2]; [4]
  IC50: 20 µM
[3]
  IC50: 25.9 nM

## CN1CC[C@@](O)(C#Cc2cccc(-n3nc(C(N)=O)c4cnc(C5CC5)nc43)c2)C1=O [Compound 158, 6-cyclopropyl-1-[3-[2-[(3R)-3-hydroxy-1-methyl-2-oxo-pyrrolidin-3-yl]ethynyl]phenyl]pyrazolo[3,4-d]pyri-midine-3-carboxamide]
[1]
  Ki: 0.23 nM
[2]; [4]
  IC50: 2 µM
[3]
  IC50: 46.2 nM

## CN1CC[C@@](O)(C#Cc2cccc(-n3nc(C(N)=O)c4cnc(C(F)(F)F)nc43)c2)C1=O [Compound 159, 1-[3-[2-[(3R)-3-hydroxy-1-methyl-2-oxo-pyrrolidin-3-yl]ethynyl]phenyl]-6-(trifluoro-methyl)pyrazolo[3,4-d] pyrimidine-3-carboxamide]
[1]
  Ki: 7.13 nM
[2]; [4]
  IC50: 2 µM
[3]
  IC50: 2000 nM

## CN1CC[C@@](O)(C#Cc2ccnc(-n3nc(C(N)=O)c4cc(Br)ccc43)c2)C1=O [Compound 66, 5-bromo-1-[4-[2-[(3R)-3-hy-droxy-1-methyl-2-oxo-pyrroli-din-3-yl]ethynyl]-2-pyri-dyl]indazole-3-carboxamide]
[1]
  Ki: 0.15 nM
[2]; [4]
  IC50: 20 µM
[3]
  IC50: 55 nM

## CN1CC[C@@](O)(C#Cc2cccc(-n3nc(C(N)=O)c4c(NC5CC5)nccc43)c2)C1=O [Compound 130, 4-(cyclopropylamino)-1-[3-[2-[(3R)-3-hydroxy-1-meth-yl-2-oxo-pyrrolidin-3-yl]eth-ynyl]phenyl]pyrazolo[4,3-c]pyridine-3-carboxamide]
[1]
  Ki: 0.11 nM
[2]; [4]
  IC50: 2 µM
[3]
  IC50: 53.1 nM

## CN1CC[C@@](O)(C#Cc2cc(-n3nc(C(N)=O)c4c3CCCC4)ccc2C#N)C1=O [Compound 167, 1-[4-cyano-3-[2-[(3R)-3-hy-droxy-1-methyl-2-oxo-pyrroli-din-3-yl]ethynyl]phenyl]-4,5,6,7-tetrahydroindazole-3-carboxamide]
[1]
  Ki: 1.93 nM
[2]; [4]
  IC50: 20 µM
[3]
  IC50: 397 nM

## Cc1ccc2c(C(N)=O)nn(-c3cccc(C#C[C@]4(O)CCN(C)C4=O)c3)c2n1 [Compound 175, 1-[3-[2-[(3R)-3-hydroxy-1-methyl-2-oxo-pyrrolidin-3-yl]ethynyl]phenyl]-6-methyl-pyrazolo[3,4-b]pyridine-3-carboxamide]
[1]
  Ki: 0.05 nM
[2]; [4]
  IC50: > 2 µM
[3]
  IC50: 135 nM

## CN1CC[C@@](O)(C#Cc2cccc(-c3nc(C(N)=O)n4ccc(CN5CCOCC5)cc34)c2)C1=O [Compound 99, 1-[3-[2-[(3R)-3-hydroxy-1-methyl-2-oxo-pyrrolidin-3-yl]ethynyl]phenyl]-7-(morpho-linomethyl)imidazo[1,5-a]pyridine-3-carboxamide]
[1]
  Ki: 1.52 nM
[2]; [4]
  IC50: 2 µM
[3]
  IC50: 231 nM

## COc1ccc2c(C(N)=O)nn(-c3cccc(C#C[C@]4(O)CCN(C)C4=O)c3)c2n1 [Compound 154, 1-[3-[2-[(3R)-3-hydroxy-1-methyl-2-oxo-pyrrolidin-3-yl]ethynyl]phenyl]-6-methoxy-pyrazolo[3,4-b]pyridine-3-carboxamide]
[1]
  Ki: 0.05 nM
[2]; [4]
  IC50: 2 µM
[3]
  IC50: 33.9 nM

## CN1CC[C@@](O)(C#Cc2cccc(-n3nc(C(N)=O)c4c3CCOC4)c2)C1=O [Compound 70, 1-[3-[2-[(3R)-3-hydroxy-1-methyl-2-oxo-pyrrolidin-3-yl]ethynyl]phenyl]-6,7-dihy-dro-4H-pyrano[4,3-c]pyrazole-3-carboxamide]
[1]
  Ki: 0.75 nM
[2]; [4]
  IC50: 20 µM
[3]
  IC50: 864 nM

## CN1CC[C@@](O)(C#Cc2cc(-n3nc(C(N)=O)c4c3CCCC4)ccn2)C1=O [Compound 166, 1-[2-[2-[(3R)-3-hydroxy-1-methyl-2-oxo-pyrrolidin-3-yl]ethynyl]-4-pyridyl]-4,5,6,7-tetrahydroindazole-3-carbox-amide]
[1]
  Ki: 1.19 nM
[2]; [4]
  IC50: 20 µM
[3]
  IC50: 320 nM

## CN1CC[C@@](O)(C#Cc2cccc(-n3nc(C(N)=O)c4c3CCN(c3nccs3)C4)c2)C1=O [Compound 122, 1-[3-[2-[(3R)-3-hydroxy-1-methyl-2-oxo-pyrrolidin-3-yl]ethynyl]phenyl]-5-thiazol-2-yl-6,7-dihydro-4H-pyra-zolo[4,3-c]pyridine-3-carbox-amide]
[1]
  Ki: 0.29 nM
[2]; [4]
  IC50: 20 µM
[3]
  IC50: 266 nM

## C[C@H]1CCc2c1c(C(N)=O)nn2-c1cccc(C#C[C@]2(O)CCN(C)C2=O)c1 [Compound 110, (4S)-1-[3-[2-[(3R)-3-hydroxy-1-methyl-2-oxo-pyrrolidin-3-yl]ethynyl]phenyl]-4-methyl-5,6-dihydro-4H-cyclo-penta[c]pyrazole-3-carbox-amide]
[1]
  Ki: 0.55 nM
[2]; [4]
  IC50: 20 µM
[3]
  IC50: 244 nM

## CCOC(=O)N1CCc2c(c(C(N)=O)nn2-c2cc(C#C[C@]3(O)CCN(C)C3=O)ccn2)C1 [Compound 165, ethyl 3-carbamoyl-1-[4-[2-[(3R)-3-hydroxy-1-methyl-2-oxo-pyrrolidin-3-yl]ethynyl]-2-pyridyl]-6,7-dihydro-4H-pyra-zolo[4,3-c]pyridine-5-car-boxylate]
[1]
  Ki: 0.23 nM
[2]; [4]
  IC50: 20 µM
[3]
  IC50: 274 nM

## NC(=O)c1nn(-c2cc(C#C[C@]3(O)CCc4cccnc43)ccn2)c2cc(F)ccc12 [Compound 72, 6-fluoro-1-[4-[2-[(7R)-7-hy-droxy-5,6-dihydrocyclopen-ta[b]pyridin-7-yl]ethynyl]-2-pyridyl]indazole-3-carbox-amide]
[1]
  Ki: 0.14 nM
[2]; [4]
  IC50: 20 µM
[3]
  IC50: 247 nM

## CN1CC[C@@](O)(C#Cc2cccc(-n3nc(C(N)=O)c4c3CCN(c3ccncn3)C4)c2)C1=O [Compound 120, 1-[3-[2-[(3R)-3-hydroxy-1-methyl-2-oxo-pyrrolidin-3-yl]ethynyl]phenyl]-5-pyrimi-din-4-yl-6,7-dihydro-4H-pyra-zolo[4,5-c]pyridine-3-carbox-amide]
[1]
  Ki: 0.52 nM
[2]; [4]
  IC50: 20 µM
[3]
  IC50: 1430 nM

## CN1CC[C@@](O)(C#Cc2cccc(-c3nc(C(N)=O)n4cc(Cl)ccc34)c2)C1=O [Compound 93, 6-chloro-1-[3-[2-[(3R)-3-hy-droxy-1-methyl-2-oxo-pyrroli-din-3-yl]ethynyl]phenyl] imidazo[1,5-a]pyridine-3-carboxamide]
[1]
  Ki: 0.06 nM
[2]; [4]
  IC50: 20 µM
[3]
  IC50: 15.3 nM

## CN1CC[C@@](O)(C#Cc2cccc(-n3nc(C(N)=O)c4cncnc43)c2)C1=O [Compound 114, 1-[3-[2-[(3R)-3-hydroxy-1-methyl-2-oxo-pyrrolidin-3-yl]ethynyl]phenyl]pyrazolo [3,4-d]pyrimidine-3-carbox-amide]
[1]
  Ki: 0.19 nM
[2]; [4]
  IC50: 20 µM
[3]
  IC50: 39.4 nM

## CN1CC[C@@](O)(C#Cc2cccc(-n3nc(C(N)=O)c4cc(-c5cnn(C)c5)cnc43)c2)C1=O [Compound 104, 1-[3-[2-[(3R)-3-hydroxy-1-methyl-2-oxo-pyrrolidin-3-yl]ethynyl]phenyl]-5-(1-meth-ylpyrazol-4-yl)pyrazolo[3,4-b]pyridine-3-carboxamide]
[1]
  Ki: 0.1 nM
[2]; [4]
  IC50: 2 µM
[3]
  IC50: 26.7 nM

## CN1CC[C@@](O)(C#Cc2cccc(-n3nc(C(N)=O)c4c3CCCC4)c2)C1=O [Compound 57, 1-[3-[2-[(3R)-3-hydroxy-1-methyl-2-oxo-pyrrolidin-3-yl]ethynyl]phenyl]-4,5,6,7-tetra-hydroindazole-3-carbox-amide]
[1]
  Ki: 1.4 nM
[2]; [4]
  IC50: 20 µM
[3]
  IC50: 405 nM

## CC(O)(C#Cc1cccc(-n2nc(C(N)=O)c3ccccc32)c1)c1nccs1 (single isomer, unassigned) [Compound 170]
[1]
  Ki: 0.75 nM
[2]; HeLa, read-out: REL-A HeLa Transloc Assay (IC50) [μM]
  IC50: 17.1 µM
[3]
  IC50: 244 nM

## COc1cc2c(C(N)=O)nn(-c3cccc(C#C[C@]4(O)CCN(C)C4=O)c3)c2cn1 [Compound 150, 1-[3-[2-[(3R)-3-hydroxy-1-methyl-2-oxo-pyrrolidin-3-yl]ethynyl]phenyl]-5-methoxy-pyrazolo[3,4-c]pyridine-3-carboxamide]
[1]
  Ki: 0.29 nM
[2]; [4]
  IC50: 20 µM
[3]
  IC50: 57.3 nM
